Values quoted from earlier work as cited in paper PMC12833850, “Hybridization Approach Applied to Umbelliferon and Vanilloids toward New Inhibitors of Carbonic Anhydrases IX and XII with In Vitro Antiproliferative and Anti-inflammatory Activities” (Journal of Medicinal Chemistry, 2026).

Target: T1, hCA IX (Homo sapiens, UniProt Q16790)
T1 construct: made in house
Conditions: data already reported; ref Maresca and Supuran, 2010

Ki: 0.198 µM
Compound: O=c1ccc2cc(O)ccc2o1 [Compound 2, 6-hydroxycoumarin]
